Reference: ChEMBL document CHEMBL3525977, “Differential impact of P-glycoprotein (ABCB1) and breast cancer resistance protein (ABCG2) on axitinib brain accumulation and oral plasma pharmacokinetics” (Drug Metab Dispos, 2011)

Key:
[1] = Drug level in brain of FVB mouse at 10 mg/kg, po after 4 hrs by liquid chromatography-tandem mass spectrometry; type: ADME, organism-based; parameters: dose 10 mg/kg, route oral; conditions: read-out: Drug uptake
[2] = Drug level in brain of FVB mouse at 10 mg/kg, po after 1 hr by liquid chromatography-tandem mass spectrometry; type: ADME, organism-based; parameters: dose 10 mg/kg, route oral; conditions: read-out: Drug uptake
[3] = Drug level in brain of Abcb1a/1b;Abcg2 (-/-) FVB mouse at 10 mg/kg, po after 4 hrs by liquid chromatography-tandem mass spectrometry; type: ADME, organism-based; parameters: dose 10 mg/kg, route oral; conditions: read-out: Drug uptake
Brain [4] = assay: Drug level in brain of Abcg2 (-/-) FVB mouse at 10 mg/kg, po after 1 hr by liquid chromatography-tandem mass spectrometry relative to wild type FVB mouse; type: ADME, organism-based; parameters: dose 10 mg/kg, route oral; conditions: in vivo
[5] = AUC (0 to 4 hrs) in Abcg2 (-/-) FVB mouse plasma at 10 mg/kg, po by liquid chromatography-tandem mass spectrometry; type: ADME, organism-based; parameters: time < 4 hr, dose 10 mg/kg, route oral
[6] = target: T1, Broad substrate specificity ATP-binding cassette transporter ABCG2 (Mus musculus, UniProt Q7TMS5); assay: Drug transport in MDCK2 cells expressing mouse ABCG2 assessed as transporter-mediated efflux ratio at 1 uM after 1 to 4 hrs; type: ADME, cell-based; conditions: mdck2, 1 µM
T1 sequence (Q7TMS5 whole entry): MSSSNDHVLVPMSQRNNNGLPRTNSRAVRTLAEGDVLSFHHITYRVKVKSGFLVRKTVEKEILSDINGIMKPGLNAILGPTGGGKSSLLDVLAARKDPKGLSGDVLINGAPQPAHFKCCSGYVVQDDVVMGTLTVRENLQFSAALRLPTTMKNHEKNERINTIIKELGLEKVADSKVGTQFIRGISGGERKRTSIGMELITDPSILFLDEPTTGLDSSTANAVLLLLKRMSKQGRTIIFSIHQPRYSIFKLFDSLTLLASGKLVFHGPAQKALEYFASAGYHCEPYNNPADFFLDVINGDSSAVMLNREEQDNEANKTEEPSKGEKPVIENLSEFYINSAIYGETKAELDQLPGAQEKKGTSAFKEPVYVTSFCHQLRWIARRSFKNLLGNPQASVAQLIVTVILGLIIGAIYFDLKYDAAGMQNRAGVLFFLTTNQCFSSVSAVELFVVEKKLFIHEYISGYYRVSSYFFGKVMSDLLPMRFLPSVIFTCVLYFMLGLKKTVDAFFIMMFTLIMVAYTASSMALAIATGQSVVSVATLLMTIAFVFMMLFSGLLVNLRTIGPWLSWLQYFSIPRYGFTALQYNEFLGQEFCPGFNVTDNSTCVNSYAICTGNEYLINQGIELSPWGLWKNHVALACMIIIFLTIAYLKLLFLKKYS

ABCG2 = target: T2, ABCG2 (Homo sapiens, UniProt Q9UNQ0); assay: Drug transport in MDCK2 cells expressing human ABCG2 assessed as transporter-mediated efflux ratio at 1 uM after 1 to 4 hrs; type: ADME, cell-based
T2 sequence (Q9UNQ0 whole entry): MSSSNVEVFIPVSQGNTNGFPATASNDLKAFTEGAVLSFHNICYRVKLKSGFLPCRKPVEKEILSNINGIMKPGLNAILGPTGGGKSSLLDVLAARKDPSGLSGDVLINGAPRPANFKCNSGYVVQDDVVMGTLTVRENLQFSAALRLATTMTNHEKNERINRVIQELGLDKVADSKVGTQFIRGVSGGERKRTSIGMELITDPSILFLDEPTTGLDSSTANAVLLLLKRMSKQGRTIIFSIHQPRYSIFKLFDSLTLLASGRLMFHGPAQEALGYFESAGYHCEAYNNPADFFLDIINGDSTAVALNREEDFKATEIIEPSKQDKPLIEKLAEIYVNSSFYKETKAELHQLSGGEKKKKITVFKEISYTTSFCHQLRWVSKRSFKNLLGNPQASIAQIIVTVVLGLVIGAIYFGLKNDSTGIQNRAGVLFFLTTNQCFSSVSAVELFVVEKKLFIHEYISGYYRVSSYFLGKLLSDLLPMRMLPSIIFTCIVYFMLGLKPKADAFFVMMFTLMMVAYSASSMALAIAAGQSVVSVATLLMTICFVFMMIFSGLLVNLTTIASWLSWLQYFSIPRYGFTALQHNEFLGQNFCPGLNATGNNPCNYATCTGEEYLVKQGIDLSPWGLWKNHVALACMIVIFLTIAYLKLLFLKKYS

[7] = AUC (0 to 1 hr) in Abcb1a/1b;Abcg2 (-/-) FVB mouse plasma at 10 mg/kg, po by liquid chromatography-tandem mass spectrometry; type: ADME, organism-based; parameters: time < 1 hr, dose 10 mg/kg, route oral
[8] = AUC (0 to 1 hr) in FVB mouse plasma at 10 mg/kg, po by liquid chromatography-tandem mass spectrometry; type: ADME, organism-based; parameters: time < 1 hr, dose 10 mg/kg, route oral
[9] = AUC (0 to 4 hrs) in FVB mouse plasma at 10 mg/kg, po by liquid chromatography-tandem mass spectrometry; type: ADME, organism-based; parameters: time < 4 hr, dose 10 mg/kg, route oral
[10] = AUC (0 to 4 hrs) in Abcb1a/1b (-/-) FVB mouse plasma at 10 mg/kg, po by liquid chromatography-tandem mass spectrometry; type: ADME, organism-based; parameters: time < 4 hr, dose 10 mg/kg, route oral
[11] = Efflux ratio in wild type MDCK2 cells at 1 uM after 1 to 4 hrs; type: ADME, cell-based, Canis lupus familiaris, MDCK-II; conditions: dog, MDCK
Brain [12] = assay: Drug level in brain of Abcb1a/1b;Abcg2 (-/-) FVB mouse at 10 mg/kg, po after 4 hrs by liquid chromatography-tandem mass spectrometry relative to wild type FVB mouse; type: ADME, organism-based; parameters: dose 10 mg/kg, route oral; conditions: in vivo
[13] = Drug transport in MDCK2 cells at 1 uM after 1 to 4 hrs in presence of 5 uM ABCB1/ABCG2 inhibitor elacridar; type: ADME, cell-based, Canis lupus familiaris; conditions: dog, mdck-ii
[14] = Drug level in brain of Abcb1a/1b (-/-) FVB mouse at 10 mg/kg, po after 4 hrs by liquid chromatography-tandem mass spectrometry; type: ADME, organism-based; parameters: dose 10 mg/kg, route oral; conditions: read-out: Drug uptake
[15] = AUC (0 to 1 hr) in Abcg2 (-/-) FVB mouse plasma at 10 mg/kg, po by liquid chromatography-tandem mass spectrometry; type: ADME, organism-based; parameters: time < 1 hr, dose 10 mg/kg, route oral
[16] = Drug level in brain of Abcb1a/1b;Abcg2 (-/-) FVB mouse at 10 mg/kg, po after 1 hr by liquid chromatography-tandem mass spectrometry; type: ADME, organism-based; parameters: dose 10 mg/kg, route oral; conditions: read-out: Drug uptake
Brain [17] = assay: Drug level in brain of Abcg2 (-/-) FVB mouse at 10 mg/kg, po after 4 hrs by liquid chromatography-tandem mass spectrometry relative to wild type FVB mouse; type: ADME, organism-based; parameters: dose 10 mg/kg, route oral; conditions: in vivo
[18] = Drug transport in MDCK2 cells at 1 uM after 1 to 4 hrs in presence of 5 uM ABCB1 inhibitor zosuquidar; type: ADME, cell-based, Canis lupus familiaris; conditions: dog, mdck-ii
Brain [19] = assay: Drug level in brain of Abcb1a/1b (-/-) FVB mouse at 10 mg/kg, po after 1 hr by liquid chromatography-tandem mass spectrometry relative to wild type FVB mouse; type: ADME, organism-based; parameters: dose 10 mg/kg, route oral; conditions: in vivo
[20] = Drug level in brain of Abcb1a/1b (-/-) FVB mouse at 10 mg/kg, po after 1 hr by liquid chromatography-tandem mass spectrometry; type: ADME, organism-based; parameters: dose 10 mg/kg, route oral; conditions: read-out: Drug uptake
[21] = AUC (0 to 4 hrs) in Abcb1a/1b;Abcg2 (-/-) FVB mouse plasma at 10 mg/kg, po by liquid chromatography-tandem mass spectrometry; type: ADME, organism-based; parameters: time < 4 hr, dose 10 mg/kg, route oral
[22] = AUC (0 to 1 hr) in Abcb1a/1b (-/-) FVB mouse plasma at 10 mg/kg, po by liquid chromatography-tandem mass spectrometry; type: ADME, organism-based; parameters: time < 1 hr, dose 10 mg/kg, route oral
[23] = Drug level in brain of Abcg2 (-/-) FVB mouse at 10 mg/kg, po after 4 hrs by liquid chromatography-tandem mass spectrometry; type: ADME, organism-based; parameters: dose 10 mg/kg, route oral; conditions: read-out: Drug uptake
[24] = Drug level in brain of Abcg2 (-/-) FVB mouse at 10 mg/kg, po after 1 hr by liquid chromatography-tandem mass spectrometry; type: ADME, organism-based; parameters: dose 10 mg/kg, route oral; conditions: read-out: Drug uptake
Brain [25] = assay: Drug level in brain of Abcb1a/1b;Abcg2 (-/-) FVB mouse at 10 mg/kg, po after 1 hr by liquid chromatography-tandem mass spectrometry relative to wild type FVB mouse; type: ADME, organism-based; parameters: dose 10 mg/kg, route oral; conditions: in vivo
ABCB1 = ABCB1 (Homo sapiens, UniProt P08183); assay: Drug transport in MDCK2 cells expressing human ABCB1 assessed as transporter-mediated efflux ratio at 1 uM after 1 to 4 hrs; type: ADME, cell-based; conditions: MDCK-MDR1
Sequence of ABCB1 (P08183 whole entry): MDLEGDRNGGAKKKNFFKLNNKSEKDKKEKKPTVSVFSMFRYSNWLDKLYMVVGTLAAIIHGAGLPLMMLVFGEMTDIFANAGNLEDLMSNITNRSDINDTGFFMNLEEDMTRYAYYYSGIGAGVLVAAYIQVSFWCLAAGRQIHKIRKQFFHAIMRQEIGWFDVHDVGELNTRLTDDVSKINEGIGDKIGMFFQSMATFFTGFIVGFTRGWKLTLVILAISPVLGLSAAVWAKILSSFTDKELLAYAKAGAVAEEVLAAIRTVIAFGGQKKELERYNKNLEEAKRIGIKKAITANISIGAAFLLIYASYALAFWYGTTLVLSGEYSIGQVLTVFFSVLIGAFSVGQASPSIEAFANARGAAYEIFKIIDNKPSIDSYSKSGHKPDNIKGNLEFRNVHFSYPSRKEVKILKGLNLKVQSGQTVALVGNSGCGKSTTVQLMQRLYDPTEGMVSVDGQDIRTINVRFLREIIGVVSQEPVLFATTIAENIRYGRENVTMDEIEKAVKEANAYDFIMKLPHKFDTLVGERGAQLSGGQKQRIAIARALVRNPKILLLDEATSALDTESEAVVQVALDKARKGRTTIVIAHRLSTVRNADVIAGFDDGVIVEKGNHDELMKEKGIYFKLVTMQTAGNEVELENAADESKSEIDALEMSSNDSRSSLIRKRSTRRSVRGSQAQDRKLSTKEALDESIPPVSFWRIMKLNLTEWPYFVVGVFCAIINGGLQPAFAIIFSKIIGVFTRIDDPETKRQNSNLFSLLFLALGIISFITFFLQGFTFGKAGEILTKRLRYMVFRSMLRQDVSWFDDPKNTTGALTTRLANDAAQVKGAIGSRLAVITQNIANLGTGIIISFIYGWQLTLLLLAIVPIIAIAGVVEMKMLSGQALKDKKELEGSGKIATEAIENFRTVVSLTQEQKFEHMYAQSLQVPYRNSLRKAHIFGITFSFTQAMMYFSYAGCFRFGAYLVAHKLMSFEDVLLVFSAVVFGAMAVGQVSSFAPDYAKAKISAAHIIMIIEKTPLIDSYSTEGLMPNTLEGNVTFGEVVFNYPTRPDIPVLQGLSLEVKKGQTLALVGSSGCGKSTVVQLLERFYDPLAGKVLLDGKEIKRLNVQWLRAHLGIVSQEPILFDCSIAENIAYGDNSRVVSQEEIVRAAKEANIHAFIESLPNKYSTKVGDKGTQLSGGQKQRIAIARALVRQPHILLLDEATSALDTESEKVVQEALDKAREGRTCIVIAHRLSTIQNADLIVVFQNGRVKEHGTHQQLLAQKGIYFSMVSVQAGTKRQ

Brain [26] = assay: Drug level in brain of Abcb1a/1b (-/-) FVB mouse at 10 mg/kg, po after 4 hrs by liquid chromatography-tandem mass spectrometry relative to wild type FVB mouse; type: ADME, organism-based; parameters: dose 10 mg/kg, route oral; conditions: in vivo

For CNC(=O)c1ccccc1Sc1ccc2c(/C=C/c3ccccn3)n[nH]c2c1 [AXITINIB], the concentration at 4 h [1] was 6 ng/g, the concentration at 1 h [2] was 100 ng/g and the concentration at 4 h [3] was 250 ng/g. For the same molecule, the Ratio (Brain [4]) was 0.8, the AUC(0-t) at 4 h [5] was 4.67 µg·h/mL and the Ratio [6] was 3.4. The efflux ratio at 1 µM (ABCG2) was 1.3, the AUC(0-t) at 1 h [7] was 1.4 µg·h/mL and the AUC(0-t) at 1 h [8] was 1.09 µg·h/mL. The AUC(0-t) at 4 h [9] was 2.68 µg·h/mL, the AUC(0-t) at 4 h [10] was 3.95 µg·h/mL and the efflux ratio at 1 µM [11] was 1.4. The Ratio (Brain [12]) was 42.4, the Drug transport [13] was “Not Active” and the concentration at 4 h [14] was 47 ng/g. For the same molecule, the AUC(0-t) at 1 h [15] was 1.76 µg·h/mL, the concentration at 1 h [16] was 1980 ng/g and the Ratio (Brain [17]) was 1.1. For the same molecule, the Drug transport [18] was “Not Active”, the Ratio (Brain [19]) was 6.3 and the concentration at 1 h [20] was 640 ng/g. For the same molecule, the AUC(0-t) at 4 h [21] was 4.95 µg·h/mL, the AUC(0-t) at 1 h [22] was 0.95 µg·h/mL and the concentration at 4 h [23] was 7 ng/g. For the same molecule, the concentration at 1 h [24] was 80 ng/g, the Ratio (Brain [25]) was 19.6 and the efflux ratio at 1 µM (ABCB1) was 5.3. The Ratio (Brain [26]) was 7.9.
